Assay results taken from patent US20090247559A1 (Exelixis, Inc., priority 2007, published 2009).
Counter-ions that a name gives are not always drawn. Like-named read-outs stand apart in the source and are kept apart here.

Tests used:
CK2 = CK2 (Homo sapiens, UniProt P68400); assay: CK2 inhibition, biochemical chemiluminescence holoenzyme assay (Kinase Glo, IC50 determination); details: Table 1 activity class; symbol given only if active; read-out: CK2 IC50 (Activity C)
Outline: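 Holoenzyme CK2 assay; compounds pre-incubated with substrate and enzyme, then reacted 150 min at 24-27° C. Remaining ATP measured as luminescence with Kinase Glo, and IC50 derived from the signal.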

CDC7 = CDC7 (Homo sapiens, UniProt O00311); assay: CDC7 inhibition, biochemical chemiluminescence assay (Kinase Glo, IC50 determination)
Outline: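 CDC7 enzyme preincubated with compound 10 min at ambient temperature, then ATP mix in Tris Base added; reaction 90 min at 24-27 °C. Remaining ATP quantified by Kinase Glo luminescence to give IC50.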

[1] = target: PIM (PIM-1, PIM-2, and/or PIM-3); assay: PIM-1, PIM-2 and PIM-3 inhibition, biochemical chemiluminescence assays (Kinase Glo, IC50 determination); details: Table 1 activity class; PIM refers to PIM-1, PIM-2, and/or PIM-3; read-out: PIM IC50 (Activity B)
[2] = Table 1 activity class, symbol given only if active, read-out: CDC7 IC50 (Activity A)
[3] = compounds in Table 1, read-out: CDC7 IC50 value

Chain of CK2 (P68400 whole entry): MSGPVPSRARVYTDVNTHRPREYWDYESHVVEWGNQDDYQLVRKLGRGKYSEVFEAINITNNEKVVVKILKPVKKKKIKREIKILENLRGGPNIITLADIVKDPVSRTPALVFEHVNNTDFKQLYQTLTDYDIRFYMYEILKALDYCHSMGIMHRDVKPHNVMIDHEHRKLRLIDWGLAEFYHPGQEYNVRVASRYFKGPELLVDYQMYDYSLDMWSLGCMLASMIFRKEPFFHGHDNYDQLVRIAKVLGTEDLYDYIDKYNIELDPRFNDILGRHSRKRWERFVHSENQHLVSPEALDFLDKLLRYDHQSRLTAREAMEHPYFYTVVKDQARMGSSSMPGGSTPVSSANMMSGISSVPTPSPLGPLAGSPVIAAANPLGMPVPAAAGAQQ
Chain of CK2 (P67870 whole entry partner): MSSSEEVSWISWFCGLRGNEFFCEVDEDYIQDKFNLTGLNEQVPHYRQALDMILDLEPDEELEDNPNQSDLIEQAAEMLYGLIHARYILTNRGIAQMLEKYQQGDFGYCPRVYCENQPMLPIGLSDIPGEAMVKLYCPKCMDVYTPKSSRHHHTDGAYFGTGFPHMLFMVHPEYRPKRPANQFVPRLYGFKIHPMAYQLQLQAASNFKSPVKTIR
Chain of CDC7 (O00311 whole entry): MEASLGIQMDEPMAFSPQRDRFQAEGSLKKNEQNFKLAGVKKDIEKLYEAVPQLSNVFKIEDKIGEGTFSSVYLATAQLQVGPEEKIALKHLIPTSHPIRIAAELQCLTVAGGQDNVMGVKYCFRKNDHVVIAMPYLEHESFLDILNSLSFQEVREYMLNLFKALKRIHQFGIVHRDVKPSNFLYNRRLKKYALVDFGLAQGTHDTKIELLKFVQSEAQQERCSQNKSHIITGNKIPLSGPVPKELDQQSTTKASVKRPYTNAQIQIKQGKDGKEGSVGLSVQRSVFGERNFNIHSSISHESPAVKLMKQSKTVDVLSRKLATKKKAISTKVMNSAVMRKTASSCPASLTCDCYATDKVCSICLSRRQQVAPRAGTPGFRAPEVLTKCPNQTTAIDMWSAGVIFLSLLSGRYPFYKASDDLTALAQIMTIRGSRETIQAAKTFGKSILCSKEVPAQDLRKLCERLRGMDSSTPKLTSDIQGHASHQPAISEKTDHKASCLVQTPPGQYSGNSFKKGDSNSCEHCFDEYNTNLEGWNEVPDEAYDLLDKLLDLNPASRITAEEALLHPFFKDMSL
Chain of CDC7 (Q9UBU7 whole entry partner): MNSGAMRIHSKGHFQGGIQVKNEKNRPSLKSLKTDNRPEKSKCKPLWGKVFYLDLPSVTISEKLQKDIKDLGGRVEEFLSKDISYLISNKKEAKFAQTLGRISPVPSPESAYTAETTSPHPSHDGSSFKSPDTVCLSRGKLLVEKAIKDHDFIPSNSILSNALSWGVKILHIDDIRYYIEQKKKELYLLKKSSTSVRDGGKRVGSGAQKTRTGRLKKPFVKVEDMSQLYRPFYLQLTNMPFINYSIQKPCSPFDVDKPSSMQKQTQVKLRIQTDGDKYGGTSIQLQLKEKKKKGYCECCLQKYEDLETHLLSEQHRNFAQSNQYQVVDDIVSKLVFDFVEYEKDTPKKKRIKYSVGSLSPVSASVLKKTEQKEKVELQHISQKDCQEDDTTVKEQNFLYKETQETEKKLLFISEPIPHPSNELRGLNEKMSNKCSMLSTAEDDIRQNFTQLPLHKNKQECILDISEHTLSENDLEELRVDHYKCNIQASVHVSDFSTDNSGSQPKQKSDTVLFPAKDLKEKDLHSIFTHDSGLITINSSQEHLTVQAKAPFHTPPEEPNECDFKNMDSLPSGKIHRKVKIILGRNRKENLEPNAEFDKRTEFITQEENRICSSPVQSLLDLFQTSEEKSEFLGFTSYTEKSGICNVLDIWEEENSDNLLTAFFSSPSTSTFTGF

Structure (SMILES)	IC50 (CK2) [µM]	IC50 (CDC7; [2]) [µM]	IC50 (CDC7; [3]) [µM]	IC50 [1] [µM]
C[C@H](N)c1nc2c(oc3ccc(Cl)cc32)c(=O)[nH]1 [Compound 533, 2-[(1S)-1-aminoethyl]-8-chloro[1]benzofuro[3,2-d]pyrimidin-4(3H)-one]	< 10	< 10	< 0.1	< 10
O=c1[nH]c(C2CCCCN2)nc2c1oc1ccc(Br)cc12 (centres unmarked) [Compound 534, 8-Bromo-2-piperidin-2-yl[1]benzofuro[3,2-d]pyrimidin-4(3H)-one hydrochloride]	< 10	< 10	< 0.1	< 10
NC(Cc1cccs1)c1nc2c(oc3ccc(Br)cc32)c(=O)[nH]1 (centres unmarked) [Compound 538, 2-[1-amino-2-(2-thienyl)ethyl]-8-bromo[1]benzofuro[3,2-d]pyrimidin-4(3H)-one]	< 10	< 10	–	< 10
CC(C)[C@H](N)c1nc2c(oc3ccc(Br)cc32)c(=O)[nH]1 [Compound 540, 2-[(1S)-1-amino-2-methylpropyl]-8-bromo[1]benzofuro[3,2-d]pyrimidin-4(3H)-one]	< 10	< 10	< 0.1	< 10
NC1(c2nc3c(oc4ccc(Br)cc43)c(=O)[nH]2)CCCC1 [Compound 543, 2-(1-aminocyclopentyl)-8-bromo[1]benzofuro[3,2-d]pyrimidin-4(3H)-one]	< 10	< 10	< 0.1	< 10
NC1(c2nc3c(oc4ccc(Br)cc43)c(=O)[nH]2)CCC1 [Compound 544, 2-(1-aminocyclobutyl)-8-bromo[1]benzofuro[3,2-d]pyrimidin-4(3H)-one]	< 10	< 10	< 0.1	< 10
